US20240228535A1 (priority 2022, published 2024)

Molecular target: SARS2 coronavirus 3CL protease (Severe acute respiratory syndrome coronavirus 2, UniProt P0DTD1)
Assay: biochemical
Conditions: 5 nM enzyme, 30 min pre-incubation with compound, 15 μM peptide substrate, 4 h at room temperature; read-out: FRET Potency (nM); IC50 values in the SARS2 3CLPro FRET assay

Row | SMILES | IC50
1 | CNC(=O)C(=O)[C@H](C[C@@H]1CCNC1=O)NC(=O)c1cc(Cl)ccc1NC(=O)OC1CC1(F)F (stereo partly drawn) [Example 157, (2,2-difluorocyclopropyl) N-[4-chloro-2-[[(1S)-3-(methylamino)-2,3-dioxo-1-[[(3S)-2-oxopyrrolidin-3-yl]methyl]propyl]carbamoyl]phenyl]carbamate] | 8.9 nM
2 | C[C@@H]1C[C@@H](C[C@H](NC(=O)c2cc(F)ccc2NC(=O)c2cccc(C(F)(F)F)c2)C(=O)C(=O)NC2CC2)C(=O)N1 [Example 78, N-[(1S)-3-(cyclopropylamino)-1-[[(3S,5R)-5-methyl-2-oxo-pyrrolidin-3-yl]methyl]-2,3-dioxo-propyl]-5-fluoro-2-[[3-(trifluoromethyl)benzoyl]amino]benzamide] | 4.6 nM
3 | CNC(=O)C(=O)[C@H](C[C@@H]1CCNC1=O)NC(=O)c1cc(Cl)ccc1NC(=O)OC(C)C(F)(F)F (stereo partly shown) [Example 180] | 4.5 nM
4 | CNC(=O)C(=O)[C@H](C[C@@H]1C[C@@H](C)NC1=O)NC(=O)c1cc(Cl)ccc1NC(=O)c1nccc(C(F)(F)F)n1 [Example 216] | 9.6 nM
5 | CNC(=O)C(=O)[C@H](C[C@@H]1C[C@@H](C)NC1=O)NC(=O)c1cc(Cl)c(Cl)cc1NC(=O)OC1CC1 [Example 170, cyclopropyl N-[4,5-dichloro-2-[[(1S)-3-(methylamino)-1-[[(3S,5R)-5-methyl-2-oxo-pyrrolidin-3-yl]methyl]-2,3-dioxo-propyl]carbamoyl]phenyl] carbamate] | 10.5 nM
6 | O=C(NC1CC1)C(=O)[C@H](C[C@@H]1CCNC1=O)NC(=O)c1cc(Cl)ccc1NC(=O)C12CC(F)(C1)C2 [Example 37, N-[4-chloro-2-[[(1S)-3-(cyclopropylamino)-2,3-dioxo-1-[[(3S)-2-oxopyrrolidin-3-yl]methyl]propyl]carbamoyl]phenyl]-3-fluoro-bicyclo[1.1.1]pentane-1-carboxamide] | 10.7 nM
7 | CNC(=O)C(=O)[C@H](C[C@@H]1C[C@@H](C)NC1=O)NC(=O)c1cc(C(F)F)ccc1NC(=O)c1ccnc(C(F)(F)F)c1 [Example 222, N-[4-(difluoromethyl)-2-[[(1S)-3-(methylamino)-1-[[(3S,5R)-5-methyl-2-oxo-pyrrolidin-3-yl]methyl]-2,3-dioxo-propyl]carbamoyl]phenyl]-2-(trifluoromethyl)pyridine-4-carboxamide] | 5.2 nM
8 | CNC(=O)C(=O)[C@H](C[C@@H]1C[C@@H](C)NC1=O)NC(=O)c1cc(Cl)c(F)cc1NC(=O)OC [Example 132, methyl N-[4-chloro-5-fluoro-2-[[(1S)-3-(methylamino)-1-[[(3S,5R)-5-methyl-2-oxo-pyrrolidin-3-yl]methyl]-2,3-dioxo-propyl]carbamoyl]phenyl] carbamate] | 13.8 nM
9 | CNC(=O)C(=O)[C@H](C[C@@H]1C[C@@H](C)NC1=O)NC(=O)c1cc(Cl)c(F)cc1NC(=O)C1(CC(F)(F)F)CC1 [Example 214, 5-chloro-4-fluoro-N-[(1S)-3-(methylamino)-1-[[(3S,5R)-5-methyl-2-oxo-pyrrolidin-3-yl]methyl]-2,3-dioxo-propyl]-2-[[1-(2,2,2-trifluoroethyl)cyclopropane-carbonyl]amino]benzamide] | 6.8 nM
10 | C[C@@H]1C[C@@H](C[C@H](NC(=O)c2cc(Cl)ccc2NC(=O)[C@@H]2CN(C)C(=O)O2)C(=O)C(=O)NC2CC2)C(=O)N1 [Example 204, (5S)-N-[4-chloro-2-[[(1S)-3-(cyclopropylamino)-1-[[(3S,5R)-5-methyl-2-oxo-pyrrolidin-3-yl]methyl]-2,3-dioxo-propyl]carbamoyl]phenyl]-3-methyl-2-oxo-oxazolidine-5-carboxamide] | 4.7 nM
11 | CNC(=O)C(=O)[C@H](C[C@@H]1C[C@@H](C)NC1=O)NC(=O)c1cc(Cl)ccc1NC(=O)OC1CC1 [Example 10, cyclopropyl (4-chloro-2-(((S)-1-((3S,5R)-5-methyl-2-oxopyrrolidin-3-yl)-4-(methylamino)-3,4-dioxobutan-2-yl)carbamoyl)phenyl)carbamate] | 3.9 nM
12 | C[C@@H]1C[C@@H](C[C@H](NC(=O)c2cc(Cl)ccc2NC(=O)c2cccc(C(F)(F)F)n2)C(=O)C(=O)NC2CC2)C(=O)N1 [Example 40] | 10 nM
13 | CNC(=O)C(=O)[C@H](C[C@@H]1C[C@@H](C)NC1=O)NC(=O)c1cc(Cl)ccc1NC(=O)C1CCCC1(F)F (stereo partly drawn) [Example 185, 5-chloro-2-[(2,2-difluorocyclopentanecarbonyl)amino]-N-[(1S)-3-(methylamino)-1-[[(3S,5R)-5-methyl-2-oxo-pyrrolidin-3-yl]methyl]-2,3-dioxo-propyl]benzamide] | 9 nM
14 | C[C@@H]1C[C@@H](C[C@H](NC(=O)c2cc(Cl)ccc2NC(=O)c2cccc(F)c2)C(=O)C(=O)NC2CC2)C(=O)N1 [Example 73, 5-chloro-N-[(1S)-3-(cyclopropylamino)-1-[[(3S,5R)-5-methyl-2-oxo-pyrrolidin-3-yl]methyl]-2,3-dioxo-propyl]-2-[(3-fluorobenzoyl)amino] benzamide] | 6.2 nM
15 | CNC(=O)C(=O)[C@H](C[C@@H]1C[C@@H](C)NC1=O)NC(=O)c1cc(C(F)(F)F)ccc1NC(=O)OC1CC1 [Example 169, cyclopropyl N-[2-[(1S)-3-(methylamino)-1-[[(3S,5R)-5-methyl-2-oxo-pyrrolidin-3-yl]methyl]-2,3-dioxo-propyl]carbamoyl]-4-(trifluoromethyl)phenyl] carbamate] | 75.3 nM
16 | CNC(=O)C(=O)[C@H](C[C@@H]1C[C@@H](C)NC1=O)NC(=O)c1cc(Cl)ccc1NC(=O)OCC(F)(F)F [Example 181, 2,2,2-trifluoroethyl N-[4-chloro-2-[[(1S)-3-(methylamino)-1-[[(3S,5R)-5-methyl-2-oxo-pyrrolidin-3-yl]methyl]-2,3-dioxo-propyl]carbamoyl]phenyl] carbamate] | 7.2 nM
17 | C[C@@H]1C[C@@H](C[C@H](NC(=O)c2cc(F)ccc2NC(=O)c2ccnc(C(F)(F)F)c2)C(=O)C(=O)NC2CC2)C(=O)N1 [Example 77, N-[2-[[(1S)-3-(cyclopropylamino)-1-[[(3S,5R)-5-methyl-2-oxo-pyrrolidin-3-yl]methyl]-2,3-dioxo-propyl]carbamoyl]-4-fluoro-phenyl]-2-(trifluoromethyl)pyridine-4-carboxamide] | 5.3 nM
18 | O=C(NC1CC1)C(=O)[C@H](C[C@@H]1CCNC1=O)NC(=O)c1cc(Cl)ccc1NC(=O)c1ccnc(C(F)(F)F)c1 [Example 75, N-[4-chloro-2-[[(1S)-3-(cyclopropylamino)-2,3-dioxo-1-[[(3S)-2-oxopyrrolidin-3-yl]methyl]propyl]carbamoyl]phenyl]-2-(trifluoromethyl)pyridine-4-carboxamide] | 6 nM
19 | CNC(=O)C(=O)[C@H](C[C@@H]1C[C@@H](C)NC1=O)NC(=O)c1cc(Cl)ccc1NC(=O)c1ncc(C(F)(F)F)cn1 [Example 217, N-[4-chloro-2-[[(1S)-3-(methylamino)-1-[[(3S,5R)-5-methyl-2-oxo-pyrrolidin-3-yl]methyl]-2,3-dioxo-propyl]carbamoyl]phenyl]-5-(trifluoromethyl)pyrimidine-2-carboxamide] | 6.7 nM
20 | C[C@@H]1C[C@@H](C[C@H](NC(=O)c2cc(Cl)c(F)cc2NC(=O)c2ccnc(C(F)(F)F)c2)C(=O)C(=O)NC2CC2)C(=O)N1 [Example 87] | 6.6 nM
21 | C[C@@H]1C[C@@H](C[C@H](NC(=O)c2cc(Cl)ccc2NC(=O)N(C)C)C(=O)C(=O)NC2CC2)C(=O)N1 [Example 148, 5-chloro-N-[(1S)-3-(cyclopropylamino)-1-[[(3S,5R)-5-methyl-2-oxo-pyrrolidin-3-yl]methyl]-2,3-dioxo-propyl]-2-(dimethylcarbamoylamino) benzamide] | 24.7 nM
22 | CNC(=O)C(=O)[C@H](C[C@@H]1C[C@@H](C)NC1=O)NC(=O)c1nc(Cl)ccc1NC(=O)OC [Example 113] | 1290 nM
23 | CNC(=O)C(=O)[C@H](C[C@@H]1C[C@@H](C)NC1=O)NC(=O)c1cc(Cl)ccc1NC(=O)OC1CCC(F)(F)C1 (stereo partly drawn) [Example 200, (3,3-difluorocyclopentyl) N-[4-chloro-2-[[(1S)-3-(methylamino)-1-[[(3S,5R)-5-methyl-2-oxo-pyrrolidin-3-yl]methyl]-2,3-dioxo-propyl]carbamoyl]phenyl] carbamate] | 4.6 nM
24 | C[C@@H]1C[C@@H](C[C@H](NC(=O)c2cc(Cl)ccc2NC(=O)C(C)(C)C(F)(F)F)C(=O)C(=O)NC2CC2)C(=O)N1 [Example 15, 5-chloro-N-[(1S)-3-(cyclopropylamino)-1-[[(3S,5R)-5-methyl-2-oxo-pyrrolidin-3-yl]methyl]-2,3-dioxo-propyl]-2-[(3,3,3-trifluoro-2,2-dimethyl-propanoyl)amino]benzamide] | 33.5 nM
25 | CNC(=O)C(=O)[C@H](C[C@@H]1C[C@@H](C)NC1=O)NC(=O)c1cc(Cl)ccc1NC(=O)OC1CCC1 [Example 151, cyclobutyl N-[4-chloro-2-[[(1S)-3-(methylamino)-1-[[(3S,5R)-5-methyl-2-oxo-pyrrolidin-3-yl]methyl]-2,3-dioxo-propyl]carbamoyl]phenyl] carbamate] | 5.1 nM
26 | C[C@@H]1C[C@@H](C[C@H](NC(=O)c2cc(Cl)ccc2NC(=O)CCC(F)(F)F)C(=O)C(=O)NCc2ccccc2)C(=O)N1 [Example 115, N—((S)-4-(benzylamino)-1-((3S,5R)-5-methyl-2-oxopyrrolidin-3-yl)-3,4-dioxobutan-2-yl)-5-chloro-2-(4,4,4-trifluorobutanamido)benzamide] | 11.5 nM
27 | CNC(=O)C(=O)[C@H](C[C@@H]1C[C@@H](C)NC1=O)NC(=O)c1cc(F)c(Cl)cc1NC(=O)OC1CC1 [Example 155, cyclopropyl N-[5-chloro-4-fluoro-2-[[(1S)-3-(methylamino)-1-[[(3S,5R)-5-methyl-2-oxo-pyrrolidin-3-yl]methyl]-2,3-dioxo-propyl]carbamoyl]phenyl] carbamate] | 30.4 nM
28 | CNC(=O)C(=O)[C@H](C[C@@H]1C[C@@H](C)NC1=O)NC(=O)c1cc(Cl)ccc1NC(=O)C(C)c1ccnc(C(F)(F)F)c1 (stereo partly drawn) [Example 227, 5-chloro-N-[(1S)-3-(methylamino)-1-[[(3S,5R)-5-methyl-2-oxo-pyrrolidin-3-yl]methyl]-2,3-dioxo-propyl]-2-[2-[2-(trifluoromethyl)-4-pyridyl]propanoylamino] benzamide] | 7.4 nM
